In patent US20220162257A1, “3ALPHA, 5BETA-NEUROACTIVE STEROIDS FOR THE TREATMENT OF EPILEPSY AND SEIZURE DISEASES” (USTAV ORGANICKE CHEMIE A BIOCHEMIE AV CR, V. V. I., priority 2019, published 2022):

Tests used:
Assay type in all cases: in vivo, rat
[1] = test system: PTZ-induced seizures in 12- and 25-day-old rats; assay: PTZ-induced generalized tonic-clonic seizures in immature rats
Description: (§1) Anticonvulsant effect of compounds was evaluated in two models of epileptic seizures in immature rats (PTZ model and 6 Hz model). PTZ convulsions were tested in 12- and 25-day-old rats, 6 Hz-induced seizures in 15- and 25-day-old rats. Young adult rats (P60) were also used in either test. Day of birth was taken as P0. Experiments evaluating precognitive effect were performed in adult male rats of the Wistar and Long Evans strain (3 months old, b.w. 300-400 g). All animals were obtained from a breeding facility of Institute of Physiology CAS (certificate No. 1396/2014-MZE-17214) Animals were held in standard conditions (21±1° C., humidity 50-60%, light regime 12/12) with unrestricted access to food and water. All manipulations with animals were performed according to the https://nc3rs.org.uk/arrive-guidelines and to Czech Animal Protection Law 246/1992 Sb. And international directives (EU Directive 2010/63/EU for animals' experiments).
(§2) Two age groups of immature male Wistar rats were used in either experiment. In PTZ model P12 corresponding by a maturation of the brain to early postnatal human babies, i.e. to the period where children epileptic encephalopathy mostly resistant to present pharmacotherapy start to appear. The other group—P25 animals corresponds with school-age children. Generalized tonic-clonic seizures were elicited by a subcutaneous injection of PTZ in a dose of 100 mg/kg. The 6 Hz model was tested in P15 (at this age eyes are open and it is not necessary to surgically distract lids). Biphasic pulses with […] were applied transcorneally for 3 s by a constant current stimulator of Ugo Basile company. PTZ induced generalized seizures represent a model of human generalized tonic-clonic seizures, seizures elicited by 6 Hz stimulation are generally taken as a model of temporal (psychomotor, complex partial) seizures. Differences in latencies and seizure severity were evaluated by ANOVA with a subsequent pairwise comparison by Holm-Sidak test. Incidence of seizures were evaluated by Fischer exact test. Critical p value was set at p=0.05.
Anticonvulsant effect was studied in 12- and 25-day-old male Wistar rats. Steroid derivatives were administered at doses of 1, 5 and 10 mg/kg i.p. 20 min before the administration of PTZ (100 mg/kg s.c.).

[2] = test system: seizures elicited by 6 Hz stimulation in rats; assay: 6 Hz transcorneal electrical stimulation seizure model in rats
Description: as §1, §2
Younger group was formed by 15-day-old animals—the animals at this age have open eyes and it is not necessary to distract eyelids surgically. The other group was 25 days old. Sensitivity of these two age groups is different, therefore we used current intensities of 40, 60, and 80 mA in 15-day-old rats and 20, 40, and 60 mA in the 25-day-old animals. Stimulations were made in 20-min intervals, 10 min before each stimulation a drop of mesocaine into either eye was used as a local anesthetic. Steroid derivatives in a dose of 10 mg/kg i.p. were administered 20 min before the first stimulation. Seizures elicited by 60-mA intensity of stimulation current were suppressed, those elicited by 80 mA not.

[3] = test system: anxiety parameters in rats; assay: Elevated plus maze test (EPM); conditions: 10 mg/kg i.p., 30 minutes before maze testing
Description: as §1
Behavioral models of the affective disorders are based on exposure to stress. […]
In the EPM test, the Compound from Example 1 was administered at doses of 1, 3 and 10 mg/kg, i.p. 30 minutes before maze testing. Time spent in open arms, closed arms, and central platform were recorded during a 10-min test session.

[4] = test system: latency to feed in rats; assay: Novelty suppressed feeding model (NSF)
Description: as §1
Behavioral models of the affective disorders are based on exposure to stress. Two behavioral tests were performed: the Elevated plus maze test (EPM, Nat. Protoc. 2007, 2, 322) and the Novelty suppressed feeding model (NSF, Interdiscip. Toxicol. 2017, 10, 40).
In the NSF test, the Compound from Example 1 was administered i.p. 30 min before the test at doses 0.1; 0.3; 1; 3 and 10 mg/kg.

[5] = test system: memory in rats; assay: Passive avoidance test, intact animals and dizocilpine (MK-801) schizophrenia-like behavior
Description: as §1
Schizophrenia-like behavior was induced by i.p. administration of dizocilpine (MK-801) at a dose of 0.1 mg/kg. The effect of the Compound from Example 1 was tested in Passive avoidance test (Psychopharmacology (Berl). 2016, 233, 2077). This test allows to study memory and learning ability. The Compound from Example 1 was applied for 30 min i.p. before the task in doses of 0.1; 1 and 3 mg/kg.

CC(=O)[C@H]1CC[C@H]2[C@@H]3CC[C@@H]4C[C@H](OC(=O)C5CCC(=O)N5)CC[C@]4(C)[C@H]3CC[C@]12C (stereo partly drawn) [Example 1, (3R,5R,8R,9S,10S,13S,14S,17S)-17-Acetyl-10,13-dimethylhexadecahydro-1H-cyclopenta[a]fenantren-3-yl 5-oxopyrrolidine-2-carboxylate]
seizure severity (5-point scale) ([1]; P12 and P25 rats, 1, 5, 10 mg/kg i.p.): copied the presence of GTCS | tonic phase of GTCS ([1]; P12 rats, 1 mg/kg i.p.): suppressed the tonic phase of GTCS | incidence of seizures ([1]; P12 rats, 5 mg/kg i.p.): significantly decrease the incidence of seizures | incidence of seizures ([1]; P12 rats, 10 mg/kg i.p.): completely suppressed the seizures | latencies to GTCS ([1]; P12 rats, 1 and 5 mg/kg i.p.): significantly prolonged | latencies of seizures ([1]; P25 rats, 1 mg/kg i.p.): not changed | animals with seizures ([1]; P25 rats, 5 and 10 mg/kg i.p.): one animal only | incidence of GTCS ([1]; P25 rats, 5 and 10 mg/kg i.p.): decrease the incidence of GTCS without a selective effect against the tonic phase | seizure severity ([2]; P15 rats, 10 mg/kg i.p.): not affected | duration of seizures ([2]; P15 rats, 60 and 80 mA, 10 mg/kg i.p.): significantly shortened at both current intensities | incidence of seizures ([2]; P15 rats, 60 mA, 10 mg/kg i.p.): suppressed | incidence of seizures (suppressed or not) ([2]; P15 rats, 80 mA, 10 mg/kg i.p.): not | duration of seizures ([2]; P25 rats, 10 mg/kg i.p.): significantly shorter | incidence of seizures ([2]; P25 rats, 10 mg/kg i.p.): tendency to a decreased incidence of seizures | seizure intensity (severity) ([2]; P25 rats, 10 mg/kg i.p.): lower intensity | changes of the threshold intensity ([2]; adult (P60) rats, 1, 5, 10 mg/kg i.p., tendency after 10 mg/kg): did not reach the level of significance | anxiety parameters [3]: significant reduction of anxiety parameters | latency to feed (anxiolytic parameter) ([4]; 0.3 mg/kg i.p., 30 min before the test): significant decrease in latency to feed | latency of feed intake ([4]; 1 and 3 mg/kg i.p.): trend to decrease the latency of feed intake | memory damage measured 1 h after the stimulus ([5]; dizocilpine 0.1 mg/kg, compound 0.1 mg/kg i.p.): prevented memory damage | memory one hour after the aversive stimulus ([5]; intact animals, 0.1, 1 and 3 mg/kg i.p.): does not impair memory
